Reference: patent US20220125052A1, “Herbicidal Compositions” (SYNGENTA CROP PROTECTION AG, priority 2019, published 2022)

Tests used:
Assay in all cases: Post-emergence efficacy (B1), glasshouse spray test
Type in all cases: in vivo
[1] = test system: Digitaria sanguinalis (DIGSA); settings: 500 g/Ha, evaluated after 13 days, 100=total damage to plant, 0=no damage to plant
Protocol: (§1) B1 Post-emergence efficacy Seeds of a variety of test species were sown in standard laom-based soil in pots:—Ipomoea hederacea (IPOHE), Euphorbia heterophylla (EPHHL), Chenopodium album (CHEAL), Amaranthus palmeri (AMAPA), Lolium perenne (LOLPE), Digitaria sanguinalis (DIGSA), Eleusine indica (ELEIN), Echinochloa crus-galli (ECHCG), Setaria faberi (SETFA). After cultivation for 14 days (post-emergence) under controlled conditions in a glasshouse (at 24/16° C., day/night; 14 hours light; 65% humidity), the plants were sprayed with an aqueous spray solution derived from the dissolution of the technical active ingredient Formula (I) in a small amount of acetone and a special solvent and emulsifier mixture referred to as IF50 (11.12% Emulsogen EL360 TM+44.44% N-methylpyrrolidone+44.44% Dowanol DPM glycol ether), to create a 50 g/l solution which was then diluted to required concentration using 0.25% or 1% Empicol ESC70 (Sodium lauryl ether sulphate)+1% ammonium sulphate as diluent. The delivery of the aqueous spray solution was via a laboratory track sprayer which delivered the aqueous spray composition at a rate of 200 litres per hectare, using a flat fan nozzle (Teejet 11002VS) and an application volume of 200 litre/ha (at 2 bar). The test plants were then grown in a glasshouse under controlled conditions (at 24/16° C., day/night; 14 hours light; 65% humidity) and watered twice daily. After 13 days the test was evaluated (100=total damage to plant; 0=no damage to plant).

[2] = test system: Echinochloa crus-galli (ECHCG); settings: 500 g/Ha, evaluated after 13 days, 100=total damage to plant, 0=no damage to plant
Protocol: as §1

[3] = test system: Setaria faberi (SETFA); settings: 500 g/Ha, evaluated after 13 days, 100=total damage to plant, 0=no damage to plant
Protocol: as §1

[4] = test system: Lolium perenne (LOLPE); settings: evaluated after 13 days, 100=total damage to plant, 0=no damage to plant
Protocol: as §1

[5] = test system: Amaranthus palmeri (AMAPA); settings: 500 g/Ha, evaluated after 13 days, 100=total damage to plant, 0=no damage to plant
Protocol: as §1

[6] = test system: Chenopodium album (CHEAL); settings: 500 g/Ha, evaluated after 13 days, 100=total damage to plant, 0=no damage to plant
Protocol: as §1

[7] = test system: Euphorbia heterophylla (EPHHL); settings: 500 g/Ha, evaluated after 13 days, 100=total damage to plant, 0=no damage to plant
Protocol: as §1

[8] = test system: Eleusine indica (ELEIN); settings: 500 g/Ha, evaluated after 13 days, 100=total damage to plant, 0=no damage to plant
Protocol: as §1

| Compound | Control of weed species after post-emergence application: DIGSA [1] | Control of weed species after post-emergence application: ECHCG [2] | Control of weed species after post-emergence application: SETFA [3] | Control of weed species after post-emergence application: LOLPE ([4]; 500 g/Ha) | Control of weed species after post-emergence application: AMAPA [5] | Control of weed species after post-emergence application: CHEAL [6] | Control of weed species after post-emergence application: EPHHL [7] | pest or weed control at 500 g/ha ([4]; Lolium perenne, 312 h, read-out: Control of weed species after post-emergence application: LOLPE) [%] | Control of weed species after post-emergence application: ELEIN [8] |
| --- | --- | --- | --- | --- | --- | --- | --- | --- | --- |
| Cl.N[C@@H](CCC[n+]1ccc(-c2ncccn2)cn1)C(=O)O.[Cl-] [Compound 1.030, [(1S)-1-carboxy-4-(4-pyrimidin-2-ylpyridazin-1-ium-1-yl)butyl]-ammonium dichloride] | 100 | 100 | 100 | – | – | – | – | – | – |
| O=C(O)CC[n+]1ccc(-c2ncccn2)cn1.[Cl-] [Compound 1.010, 3-(4-pyrimidin-2-ylpyridazin-1-ium-1-yl)propanoic acid chloride] | – | – | – | 90 | – | – | – | – | – |
| O=C(O)CC[n+]1ccc(-c2cccnn2)cn1.[Cl-] [Compound 1.027, 3-(4-pyridazin-3-ylpyridazin-1-ium-1-yl)propanoic acid chloride] | 100 | 100 | 100 | – | 100 | 100 | 100 | – | – |
| O=C(O)CC[n+]1ccc(-c2ncccn2)cn1 [Compound 1.023, 3-(4-pyrimidin-2-ylpyridazin-1-ium-1-yl)propanoic acid 2,2,2-trifluoroacetate] | – | – | – | – | – | – | – | 90 | – |
| O=C(O)CC[n+]1ccc(-c2ncccn2)cn1.[Br-] [Compound 1.021, 3-(4-pyrimidin-2-ylpyridazin-1-ium-1-yl)propanoic acid bromide] | 100 | 100 | 100 | – | – | – | 100 | – | 100 |
